Results published in paper PMC5986738, “Thiazole Amides, A Novel Class of Algaecides against Freshwater Harmful Algae” (Scientific Reports, 2018).
Values after ≈ are worked out from the molar mass of the structure shown.

Tests used:
C. pyrenoidosa = test: Algicidal activity (growth inhibition, microplate, absorbance 650 nm) against C. pyrenoidosa; type: cell-based, Chlorella pyrenoidosa; conditions: 96-hour IC50, mean ± SD; for IC50: Auxenochlorella pyrenoidosa, read-out: IC50 value C. pyrenoidosa
Description: (§1) According to the method established by Schrader et al.[42], algicidal activity of alkaloid (1) and its amide analogues (7–32), as well as their hydrochloric salts (7S–27S), was evaluated against three typical […] algae, S. obliqnus, M. aeruginosa, and C. Pyrenoidosa at different concentrations. After three algae species were inoculated, the variation of algae density over 7 days were recorded continuously. […] The wavelength at 650 nm was determined as ideal incident wavelength for the measurement of algae density. Three […] algae S. obliqnus, M. aeruginosa, and C. pyrenoidosa were offered by Freshwater algae culture collection of the institute of Hydrobiology (FACHB-collection). Each culture for three species was maintained separately in continuous, steady-state growth microplates, which were placed in a growth chamber held at 28 ± 1 °C and illuminated continuously under fluorescent lights at a photon flux density of […]. Absorbance values of each wells were measured by a Packard model Spectra Count microplate photometer.
(§2) Alkaloid (1) and its analogues (7–32), as well as their hydrochloric salts (7S–27S), were dissolved separately in DMSO to provide stock solution concentrations. Initially, each stock solution was aseptically pipetted into the bottom of separate wells (20 μL per well) in a 96-well microplate and the final test concentrations for each sample were 0, 0.78, 1.56, 3.12, 6.25, 12.5, and 25 μg/mL. Wells of control samples contained only unialgal culture. The solution of CuSO4 and Diuron at the same concentration were chose as the reference sample. Each experiment was performed at least three times. Through measuring the area values under the individual growth curves, the inhibitory rate (%) for the individual tested concentration was calculated according to the following equation (1):1 Ii=(Ac−Ai)/[…]×100% • Ii: inhibitory rate of biomass growth by toxicant concentration i (%) • Ac: average area under the growth curve by control sample • Ai: average area under the growth curve by test concentration i
(§3) Mean values of 96-hour IC50 were determined for each group of plates, and standard deviation were calculated and reported as the mean ± SD.
(§4) The IC50 values of all compounds against three freshwater algae species were calculated using SPSS v19.0, and the algicidal activities of alkaloid (1) and its amide analogues (7–32), as well as the corresponding hydrochloric salts (7S–27S) are listed in Table 1 and 2, respectively.

M. aeruginosa = test: Algicidal activity (growth inhibition, microplate, absorbance 650 nm) against M. aeruginosa; type: cell-based; conditions: 96-hour IC50, mean ± SD; for IC50: Microcystis aeruginosa, read-out: IC50 value M. aeruginosa
Description: as §1, §2, §3, §4
Currently, M. aeruginosa appears to be the most harmful algae existing in the freshwater bodies in the developing countries. To investigate growth inhibitory potential of this class of thiazole amides on M. aeruginosa, thiazole amide (10) and its hydrochloric acid salt (10S) were subject to further survey for the optimal inhibition time and concentration (Figs 3 and 4). […] The variation of growth inhibitory ratios of compounds (10) and (10S) against M. aeruginosa at the lowest complete inhibition concentration is illustrated in Fig. 4. As observed, for administration of thiazole amide (10), the growth inhibitory ratios after 96 and 120 hours increase gradually to 79% and 92%, respectively. Under the same experimental conditions, growth inhibitory ratios for the salt (10S) are 82% and 88%, respectively.

S. obliqnus = test: Algicidal activity (growth inhibition, microplate, absorbance 650 nm) against S. obliqnus; type: cell-based; conditions: for IC50: 96 h, read-out: IC50 value S. obliqnus; for IC50 / IC50 value S. obliqnus: 96-hour IC50, mean ± SD
Description: as §1, §2, §3, §4

Compound | IC50 (C. pyrenoidosa) [µg/mL] | melting point [°C] | IC50 (M. aeruginosa) [µg/mL] | IC50 (S. obliqnus) [µg/mL] | algicidal activity, times higher than CuSO4 and Diuron (S. obliqnus; S. obliqnus, from IC50 values) | IC50 value C. pyrenoidosa (C. pyrenoidosa) [µg/mL] | IC50 value M. aeruginosa (M. aeruginosa) [µg/mL] | IC50 value S. obliqnus (S. obliqnus) [µg/mL]
C[C@H](N)c1nc(C(=O)Nc2ccccc2)cs1 [compound 7] | 4.61 ± 0.45 (≈ 18.6 µM) | 117 to 122 | 11.2 ± 1.12 (≈ 45.1 µM) |  |  |  |  | 
C[C@H](N)c1nc(C(=O)Nc2ccc(F)cc2)cs1 [compound 8] | 3.57 ± 0.37 (≈ 13.5 µM) |  | 4.51 ± 0.92 (≈ 17 µM) | 2.74 ± 0.11 (≈ 10.3 µM) |  |  |  | 
C[C@H](N)c1nc(C(=O)Nc2ccc(Cl)cc2)cs1 [compound 9] | 1.37 ± 0.12 (≈ 4.86 µM) |  | 2.19 ± 0.09 (≈ 7.77 µM) | 4.12 ± 0.13 (≈ 14.6 µM) |  |  |  | 
Cc1ccc(NC(=O)c2csc([C@H](C)N)n2)cc1 [compound 11] | 10.4 ± 1.12 (≈ 39.8 µM) |  | 6.16 ± 1.13 (≈ 23.6 µM) | 2.66 ± 0.18 (≈ 10.2 µM) |  |  |  | 
COc1ccc(NC(=O)c2csc([C@H](C)N)n2)cc1 [compound 12] | 17.4 ± 0.92 (≈ 62.6 µM) | 126 to 127 | 2.35 ± 0.91 (≈ 8.47 µM) |  | more than 10 times |  |  | 
C[C@H](N)c1nc(C(=O)Nc2ccc(C(F)(F)F)cc2)cs1 [compound 13] | 4.58 ± 0.23 (≈ 14.5 µM) |  | 2.36 ± 0.12 (≈ 7.48 µM) | 4.35 ± 0.17 (≈ 13.8 µM) |  |  |  | 
C[C@H](N)c1nc(C(=O)Nc2cccc(Cl)c2)cs1 [compound 14] | 4.37 ± 0.14 (≈ 15.5 µM) | 155 to 159 | 5.19 ± 0.19 (≈ 18.4 µM) | 1.52 ± 0.12 (≈ 5.39 µM) |  |  |  | 
CC(N)c1nc(C(=O)Nc2cccc(Br)c2)cs1 (centres unmarked) [compound 15] |  |  |  |  |  | 5.77 ± 0.11 (≈ 17.7 µM) | 4.79 ± 0.15 (≈ 14.7 µM) | 
C[C@H](N)c1nc(C(=O)Nc2cccc(C(F)(F)F)c2)cs1 [compound 17] | 10.4 ± 0.99 (≈ 33.1 µM) |  | 12.2 ± 2.13 (≈ 38.7 µM) | 9.21 ± 1.12 (≈ 29.2 µM) |  |  |  | 
C[C@H](N)c1nc(C(=O)Nc2ccccc2F)cs1 [compound 18] | 3.41 ± 0.14 (≈ 12.9 µM) |  | 2.55 ± 0.19 (≈ 9.61 µM) | 3.95 ± 0.92 (≈ 14.9 µM) |  |  |  | 
C[C@H](N)c1nc(C(=O)Nc2ccccc2Cl)cs1 [compound 19] | 8.16 ± 1.34 (≈ 29 µM) |  | 12.2 ± 1.16 (≈ 43.4 µM) |  |  |  |  | 
C[C@H](N)c1nc(C(=O)Nc2ccccc2Br)cs1 [compound 20] | 2.84 ± 0.93 (≈ 8.71 µM) |  | 8.79 ± 1.23 (≈ 26.9 µM) | 3.31 ± 0.13 (≈ 10.1 µM) |  |  |  | 
Cc1ccccc1NC(=O)c1csc([C@H](C)N)n1 [compound 21] | 26.1 ± 3.25 (≈ 99.8 µM) |  | 10.1 ± 1.71 (≈ 38.5 µM) |  |  |  |  | 
C[C@H](N)c1nc(C(=O)Nc2ccc(OC(F)(F)F)cc2)cs1 [compound 23] | 3.8 ± 0.16 (≈ 11.5 µM) |  | 7.2 ± 0.71 (≈ 21.7 µM) | 5.93 ± 0.11 (≈ 17.9 µM) |  |  |  | 
C[C@H](N)c1nc(C(=O)Nc2ccc(Cl)c(Cl)c2)cs1 [compound 24] | 5.11 ± 1.01 (≈ 16.2 µM) |  | 9.81 ± 1.13 (≈ 31 µM) | 4.31 ± 0.21 (≈ 13.6 µM) |  |  |  | 
Cc1cc(NC(=O)c2csc([C@H](C)N)n2)ccc1F [compound 25] | 5.1 ± 0.13 (≈ 18.3 µM) |  | 6.73 ± 1.21 (≈ 24.1 µM) | 1.81 ± 0.07 (≈ 6.48 µM) |  |  |  | 
CCOC(=O)c1ccc(NC(=O)c2csc([C@H](C)N)n2)cc1 [compound 26] | 4.16 ± 0.56 (≈ 13 µM) |  | 3.29 ± 0.21 (≈ 10.3 µM) | 29.5 ± 1.56 (≈ 92.5 µM) |  |  |  | 
CC(N)c1nc(C(=O)Nc2ccccn2)cs1 (centres unmarked) [compound 28] |  |  |  |  |  | 14.76 ± 1.26 (≈ 59.4 µM) | 3.09 ± 0.15 (≈ 12.4 µM) | 3.97 ± 0.17 (≈ 16 µM)
C[C@H](N)c1nc(C(=O)NC(C)(C)C)cs1 [compound 29] | 3.46 ± 0.67 (≈ 15.2 µM) |  | 5.31 ± 0.45 (≈ 23.4 µM) | 6.23 ± 0.98 (≈ 27.4 µM) |  |  |  | 
C[C@H](N)c1nc(C(=O)NCCc2ccccc2)cs1 [compound 31] | 2.84 ± 0.56 (≈ 10.3 µM) |  | 57.5 ± 6.26 (≈ 209 µM) | 5.98 ± 0.49 (≈ 21.7 µM) |  |  |  | 
N-(2-(1H-indol-3-yl)ethyl)-2-acetylthiazole-4-carboxamide [Alkaloid (1)] |  |  |  |  |  | 381.57 ± 5.16 | 114.60 ± 3.35 | 14.33 ± 1.15
